The values that follow come from patent US8436031B2 (priority 2004, dated 2013).

One data set has as its target LcrF (VirF) (Yersinia pseudotuberculosis, UniProt Q663J0). Briefly: biochemical. Type of data set: binding, Y. pseudotuberculosis.
Another data set addresses SoxS (Escherichia coli, UniProt P0A9E2). The experiment in a line: Chemiluminescence DNA binding assay, SoxS. Set-up: species or system E. coli. As to conditions: for EC50 for SoxS compared with ARD: relative to ARD; for EC50: E. coli SoxS, DNA binding.
A further data set deals with SlyA (Salmonella typhimurium, UniProt P40676). The experiment in a line: Chemiluminescence DNA binding assay, SlyA (MarR protein control). Set-up: species or system S. typhimurium.
The next data set has as its target Rob (Escherichia coli, UniProt P0ACI0). The experiment in a line: Chemiluminescence DNA binding assay, Rob. The conditions noted are these: E. coli Rob.
In the next data set the target is Rma (Salmonella typhimurium, UniProt H9L484). Briefly: Chemiluminescence DNA binding assay, Rma. More on the design: species or system S. typhimurium.
A further data set addresses PqrA (Proteus mirabilis, UniProt B4ETM4). The experiment in a line: Chemiluminescence DNA binding assay, PqrA. As to conditions: P. mirabilis PqrA.
In another data set the target is ExsA (Pseudomonas aeruginosa, UniProt P26993). The experiment in a line: Chemiluminescence DNA binding assay, ExsA. More on the design: species or system P. aeruginosa.
Data set [1] addresses T1, MarA (Escherichia coli, UniProt P0ACH5). Briefly: Chemiluminescence DNA binding assay, MarA. The conditions noted are these: E. coli MarA.
Target sequence in this assay (P0ACH5 whole entry): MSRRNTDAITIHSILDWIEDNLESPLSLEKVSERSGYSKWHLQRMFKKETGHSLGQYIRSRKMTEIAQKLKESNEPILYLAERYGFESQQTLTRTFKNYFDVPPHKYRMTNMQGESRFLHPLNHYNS
Data set [2] in a line: In vivo toxicity, repeat dose experiments. As to conditions: mice; subcutaneous 25 mg/Kg, two doses on day 1, single dose on days 2-5. As to the method:
The in vivo toxicity of Mar inhibitors ATB, BAB, BAF, BBP and BBS were investigated in repeat dose experiments. Mice were given two subcutaneous doses (25 mg/Kg) of a Mar inhibitor on day 1 and a single dose of the compound on days 2-5.

In data set [3] the target is T1, MarA. Briefly: Selective marker (ccdB) under MarA-activated promoter; cell survival under MarA expression (Example 2). The conditions noted are these: inhibition of MarA; cell survival under conditions of MarA expression. More on the design: key: *: good inhibition of MarA; **: very good inhibition of MarA. The format is cell-based. The source says:
In this example, the expression of a selective marker (e.g., ccdB) is put under the direct control of a promoter activated by MarA (e.g., inaA, galT, or micF). In the absence of MarA, the expression of the selective marker is silent and cells survive. Synthesis of MarA from an inducible plasmid in a bacterial or yeast cell leads to the activation of the inaA promoter, expression of ccdB, and subsequently results in cell death. Compounds that inhibit MarA are those that permit cell survival under conditions of MarA expression. In Table 4, * indicates good inhibition of MarA and ** indicates very good inhibition of MarA.
Target sequence in this assay (P0ACH5 whole entry, looked up): as the sequence (P0ACH5 whole entry) above

Chain of LcrF (VirF) (Q663J0 1-271): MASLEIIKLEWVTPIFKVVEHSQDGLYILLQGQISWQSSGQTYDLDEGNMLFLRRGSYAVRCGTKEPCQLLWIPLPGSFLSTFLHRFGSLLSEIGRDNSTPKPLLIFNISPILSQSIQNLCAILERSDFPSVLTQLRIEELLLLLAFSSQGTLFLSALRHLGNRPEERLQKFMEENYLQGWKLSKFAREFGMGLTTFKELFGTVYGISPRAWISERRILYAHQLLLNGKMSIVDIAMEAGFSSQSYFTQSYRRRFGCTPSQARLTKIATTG
Chain of SlyA (P40676 whole entry): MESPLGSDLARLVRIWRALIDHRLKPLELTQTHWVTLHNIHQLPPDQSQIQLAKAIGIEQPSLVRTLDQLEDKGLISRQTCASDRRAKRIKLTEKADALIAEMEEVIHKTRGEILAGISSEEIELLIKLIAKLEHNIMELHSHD
Chain of Rma (H9L484 whole entry): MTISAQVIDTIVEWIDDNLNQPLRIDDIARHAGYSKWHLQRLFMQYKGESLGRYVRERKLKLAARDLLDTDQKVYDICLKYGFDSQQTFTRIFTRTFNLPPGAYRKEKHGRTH
Chain of Rob (P0ACI0 whole entry): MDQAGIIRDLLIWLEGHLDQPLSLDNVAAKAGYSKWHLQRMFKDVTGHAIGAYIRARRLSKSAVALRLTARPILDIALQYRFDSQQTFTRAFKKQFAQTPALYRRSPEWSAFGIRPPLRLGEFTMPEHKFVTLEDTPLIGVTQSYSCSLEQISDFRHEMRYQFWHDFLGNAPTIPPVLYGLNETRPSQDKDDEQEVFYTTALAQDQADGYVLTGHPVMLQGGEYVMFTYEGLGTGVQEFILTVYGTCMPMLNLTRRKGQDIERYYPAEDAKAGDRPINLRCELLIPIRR
Chain of SoxS (P0A9E2 whole entry): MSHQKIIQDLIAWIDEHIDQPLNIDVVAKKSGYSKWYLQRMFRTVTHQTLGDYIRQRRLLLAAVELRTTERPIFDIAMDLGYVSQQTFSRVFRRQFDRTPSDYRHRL
Chain of ExsA (P26993 whole entry): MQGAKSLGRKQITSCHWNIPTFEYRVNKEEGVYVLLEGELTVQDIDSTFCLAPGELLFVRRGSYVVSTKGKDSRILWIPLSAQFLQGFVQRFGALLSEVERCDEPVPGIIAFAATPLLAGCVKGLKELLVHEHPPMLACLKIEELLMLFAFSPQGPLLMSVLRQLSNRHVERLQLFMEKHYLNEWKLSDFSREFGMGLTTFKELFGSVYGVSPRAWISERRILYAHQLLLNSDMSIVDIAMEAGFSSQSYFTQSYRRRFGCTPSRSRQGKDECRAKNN
Chain of PqrA (B4ETM4 entry or part of it): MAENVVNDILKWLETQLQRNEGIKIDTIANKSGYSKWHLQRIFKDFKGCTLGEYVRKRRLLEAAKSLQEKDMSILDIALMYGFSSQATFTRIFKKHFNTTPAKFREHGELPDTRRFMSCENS

As usually defined, the EC50 is the concentration that produces a half-maximal response. `COc1ccc(/C=C/C(=O)Nc2ccc(-c3nc4ccc([N+](=O)[O-])cc4n3O)cc2)cc1` [BCL] had an EC50 at LcrF (VirF) of 5.1 µM.
Regarding `O=[N+](O)c1cccc2c1nc(-c1ccco1)n2O` [AQV], the “EC50 for SoxS compared with ARD” value on SoxS was “higher than that of ARD”.
Take `O=C(Nc1ccc(-c2nc3ccc([N+](=O)[O-])cc3n2O)cc1)c1ccc(Cl)cc1` [AST]: the “EC50 for SoxS compared with ARD” value at SoxS is given as “higher than that of ARD”.
As to `O=[N+]([O-])c1ccc2nc(-c3ccc(-c4ccccc4)o3)n(O)c2c1` [ARD], the concentration for a half-maximal effect (EC50) on SoxS amounted to 8.3 µM; on SlyA, 11.9 µM; at Rob it was 28 µM; at Rma, 17 µM; on PqrA it was 13.6 µM; at ExsA it was 15.6 µM. In addition, the midpoint of the response at MarA [1], the EC50, lay at 11.7 µM.
Consider `COc1cccc(-c2nc3ccc([N+](=O)[O-])cc3n2O)c1` [ANU], for which, on SoxS, the “EC50 for SoxS compared with ARD” value is on record as “higher than that of ARD”.
The molecule `O=C(Nc1ccc(-c2nc3ccc([N+](=O)[O-])cc3n2O)cc1)c1ccccc1F` [BBW] had a concentration for a half-maximal effect (EC50) on LcrF (VirF) of over 57.3 µM.
In the case of `NC(=O)c1ccc2nc(-c3ccccc3)n(O)c2c1` [APJ], the “EC50 for SoxS compared with ARD” value on SoxS is reported as “higher than that of ARD”.
On LcrF (VirF), `O=C(Nc1ccc(-c2nc3ccc([N+](=O)[O-])cc3n2O)cc1)c1cccc(F)c1` [BBS] had a concentration for a half-maximal effect (EC50) of 29 µM. The in vivo toxicity result in data set [2] is recorded as “No overt signs of toxicity”.
Consider `O=[N+]([O-])c1ccc2nc(-c3ccoc3)n(O)c2c1` [AOW], for which the “EC50 for SoxS compared with ARD” value at SoxS is on record as “higher than that of ARD”.
Turning to `O=C(/C=C/c1ccc(F)cc1F)Nc1ccc(-c2nc3ccc([N+](=O)[O-])cc3n2O)cc1` [BCO], the midpoint of the response at LcrF (VirF), the EC50, lay at 2.2 µM.
`Cc1ccccc1C(=O)Nc1ccc(-c2nc3ccc([N+](=O)[O-])cc3n2O)cc1` [BBV] had an EC50 at LcrF (VirF) of over 57.9 µM.
For `O=C(Nc1ccc(-c2nc3ccc([N+](=O)[O-])cc3n2O)cc1)c1ccc(F)cc1` [ASU], the 50% effective concentration (EC50) at SoxS is 3 µM; on SlyA it was 51 µM; on Rob, 4.7 µM; at LcrF (VirF), 17.7 µM; at Rma, 4.9 µM; on ExsA, 4 µM.
With `CN(C)c1ccc(-c2nc3ccc([N+](=O)[O-])cc3n2O)cc1` [ARB], at SoxS, the “EC50 for SoxS compared with ARD” value was “higher than that of ARD”.
Turning to `O=C(NCc1ccc(-c2nc3ccc([N+](=O)[O-])cc3n2O)cc1)c1ccccc1` [ASS], on SoxS, the “EC50 for SoxS compared with ARD” value is given as “higher than that of ARD”.
Consider `CN(C)c1ccc(C(=O)Nc2ccc(-c3nc4ccc([N+](=O)[O-])cc4n3O)cc2)cc1` [ATE], for which the EC50 turned out to be 0.82 µM at SoxS; 14.3 µM on SlyA; 1.3 µM at Rob; 36.5 µM at LcrF (VirF); 1.8 µM at Rma; 1.4 µM at PqrA. Also, the 50% effective concentration (EC50) at ExsA amounted to 1.9 µM; on MarA [1] it was 1.2 µM.
`Cc1ccc(/C=C/C(=O)Nc2ccc(-c3nc4ccc([N+](=O)[O-])cc4n3O)cc2)cc1` [BCK] showed an EC50 at LcrF (VirF) of 0.8 µM.
`O=C(/C=C/c1ccc(F)cc1)Nc1ccc(-c2nc3ccc([N+](=O)[O-])cc3n2O)cc1` [BBP] had an EC50 at LcrF (VirF) of 7.1 µM. Moreover, the in vivo toxicity entry in [2] is given as “No overt signs of toxicity”.
On to `N#Cc1ccc(C(=O)Nc2ccc(-c3nc4ccc([N+](=O)[O-])cc4n3O)cc2)cc1` [BAB], for which, in [2], the in vivo toxicity entry is listed as “No overt signs of toxicity”.
On to `O=C(Nc1ccc(-c2nc3ccc([N+](=O)[O-])cc3n2O)cc1)c1ccccc1` [AQQ], for which, at SoxS, the “EC50 for SoxS compared with ARD” value was “higher than that of ARD”.
At LcrF (VirF), `Cc1cccc(C(=O)Nc2ccc(-c3nc4ccc([N+](=O)[O-])cc4n3O)cc2)c1` [BBT] returned a 50% effective concentration (EC50) of 27.5 µM.
In the case of `Cc1ccc(C(=O)Nc2ccc(-c3nc4ccc([N+](=O)[O-])cc4n3O)cc2)cc1` [ATB], the half-maximal effective concentration (EC50) came out at 2.7 µM at SoxS, 7.4 µM on Rob, 15.5 µM on LcrF (VirF) and 4 µM at ExsA. In addition, in data set [2], the in vivo toxicity entry is on record as “No overt signs of toxicity”.
Turning to `CC(=O)c1ccc(C(=O)Nc2ccc(-c3nc4ccc([N+](=O)[O-])cc4n3O)cc2)cc1` [BAF], the in vivo toxicity entry in data set [2] is given as “No overt signs of toxicity”.
For `O=C1C(=C2NC(c3ccccn3)C3C(=O)N(c4ccccc4)C(=O)C23)C(=O)c2ccccc21` (centres unmarked) [AF, 4-(1,3-Dioxo-indan-2-ylidene)-2-phenyl-6-pyridin-2-yl-tetrahydro-pyrrolo[3,4-c]pyrrole-1,3-dione], the “MarA inhibition score (cell survival)” value at MarA [3] is reported as “**”.
Take `O=[N+]([O-])c1ccc2nc(-c3ccco3)n(O)c2c1` [AOX]: at SoxS, the “EC50 for SoxS compared with ARD” value is given as “higher than that of ARD”.
In the case of `O=C(Nc1ccc(-c2nc3ccc([N+](=O)[O-])cc3n2O)cc1)c1cccc(Cl)c1` [ASX], the EC50 was determined as 4.9 µM on SoxS; 21.7 µM at SlyA; 3.4 µM at Rob; 3.5 µM on Rma; 2.5 µM at ExsA.
For `CCOC(=O)C1=C(C)N=c2s/c(=C\c3ccc(-c4cccc(C(=O)O)c4)o3)c(=O)n2C1c1c(OC)ccc2ccccc12` (centres unmarked) [N, 2-[5-(3-Carboxy-phenyl)-furan-2-ylmethylene]-5-(2-methoxy-naphthalen-1-yl)-7-methyl-3-oxo-2,3-dihydro-5H-thiazolo[3,2-a]pyrimidine-6-carboxylic acid ethyl ester], the “MarA inhibition score (cell survival)” value at MarA [3] is reported as “**”.
The molecule `COc1ccc(C(=O)Nc2ccc(-c3nc4ccc([N+](=O)[O-])cc4n3O)cc2)cc1` [ASR] registered an EC50 at LcrF (VirF) of 18.3 µM.
With `O=c1cc(-c2ccc(F)cc2)oc2ccccc12` [BE, 2-(4-fluorophenyl)-4H-chromen-4-one], the “MarA inhibition score (cell survival)” value on MarA [3] was “*”.
Consider `O=c1/c(=C/c2cn(-c3ccccc3)nc2-c2ccc(F)cc2)sc2nc3ccccc3n12` [AM, 2-[3-(4-Fluoro-phenyl)-1-phenyl-1H-pyrazol-4-ylmethylene]-benzo[4,5]imidazo[2,1-b]thiazol-3-one], for which the “MarA inhibition score (cell survival)” value on MarA [3] is listed as “**”.
Same read-out and setting: for `O=[N+]([O-])c1ccc2nc(-c3ccccc3)n(OCc3cccc(C(F)(F)F)c3)c2c1` [AG, 6-Nitro-2-phenyl-1-(3-trifluoromethyl-benzyloxy)-1H-benzoimidazole] the value was “**”; for `O=[N+]([O-])c1ccc2nc(-c3ccccc3)n(OCc3ccccc3)c2c1` [AI, 1-Benzyloxy-6-nitro-2-phenyl-1H-benzoimidazole], “**”.
